Source: PMC7251097, “Aspartate/asparagine-β-hydroxylase: a high-throughput mass spectrometric assay for discovery of small molecule inhibitors” (Scientific Reports, 2020)
“And” between values parts separate entries of the source, which are not always exact repeats. Equal entries are not always repeated. Structures can show the parent of a compound that is named as a salt.

biological target: T1, His6-AspH315-758 (AspH) (Homo sapiens, UniProt Q12797); test: Differential scanning fluorimetry (DSF) assay, shift of AspH melting temperature; format: binding; conditions: 20 μM inhibitor, 2 μM AspH, 50 μM NiCl2; with respect to DMSO controls; n = 2, mean ± SD
T1 construct: freshly thawed His6-AspH315-758 was added; made in house; host or cells: E. coli BL21 (DE3), pET-28a(+) vector
T1 sequence (Q12797 315-758): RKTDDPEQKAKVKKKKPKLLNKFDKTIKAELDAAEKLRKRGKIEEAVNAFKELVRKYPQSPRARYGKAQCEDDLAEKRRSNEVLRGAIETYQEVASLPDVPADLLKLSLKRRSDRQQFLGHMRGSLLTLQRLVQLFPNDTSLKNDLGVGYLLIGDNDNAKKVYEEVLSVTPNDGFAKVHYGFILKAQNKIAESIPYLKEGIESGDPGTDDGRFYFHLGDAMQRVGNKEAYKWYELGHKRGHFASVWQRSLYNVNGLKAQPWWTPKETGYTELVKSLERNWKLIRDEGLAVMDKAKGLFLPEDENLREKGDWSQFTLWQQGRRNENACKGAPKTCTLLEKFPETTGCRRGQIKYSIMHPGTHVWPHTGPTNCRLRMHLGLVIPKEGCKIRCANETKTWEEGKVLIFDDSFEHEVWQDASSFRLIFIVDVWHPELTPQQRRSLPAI

| Compound | Tm-shift (ΔTm) of AspH melting temperature [°C] |
| --- | --- |
| CCOc1nc2cccc(C(=O)OC(C)OC(=O)OC3CCCCC3)c2n1Cc1ccc(-c2ccccc2-c2nnn[nH]2)cc1 (stereo not drawn) [Candesartan cilexetil, reference compound] | < 0.3 °C |
| O=C(O)c1ccc(O)c2ncccc12 [IOX1] | 2.8 ± 0.2 °C and ~ 2.8 °C |
| Cc1ccc(-n2sc3ccccc3c2=O)cc1 [PBIT, 2-(4-methylphenyl)-1,2-benzisothiazol-3(2 H)-one, reference compound] | -15.2 ± 1.4 °C and ~ −15.2 °C |

same assay, conditions: 20 μM inhibitor, 2 μM AspH, 50 μM NiCl2; with respect to DMSO controls; n = 2, mean ± SD; read-out: Tm-shift (ΔTm) of AspH melting temperature [°C]

| Compound | ΔTm at 20 µM |
| --- | --- |
| O=C(O)c1ccnc(C(=O)O)c1 [2,4-PDCA, pyridine-2,4-dicarboxylic acid] | 3.5 ± 0.6 °C |
| CCOc1nc2cccc(C(=O)OC(C)OC(=O)OC3CCCCC3)c2n1Cc1ccc(-c2ccccc2-c2nnn[nH]2)cc1 (stereo not drawn) [Candesartan cilexetil, reference compound] | 0.2 ± 0.1 °C |
| O=C(O)CNC(=O)C(=O)O [NOG, N-oxalylglycine, reference compound] | 2.8 ± 0.3 °C |

biological target: T2, His6-AspH315–758 (human aspartate/asparagine-β-hydroxylase, AspH) (Homo sapiens, UniProt Q12797); test: SPE-MS AspH inhibition assay (LOPAC screen at fixed 20 μM and IC50 dose-response), hydroxylation of cyclic peptide hFX-CP101–119; format: biochemical; conditions: not given
T2 construct: N-Terminally His6-tagged human AspH315–758 (His6-AspH315–758) was produced in E. coli BL21 (DE3) cells; made in house; host or cells: E. coli BL21 (DE3), pET-28a(+) vector
T2 sequence (Q12797 315-758): T1 sequence (Q12797 315-758)

| Compound | Plate 3 (% conversion) | Inhibition at 20 µM [%] | Plate 1 (% conversion) | Plate 1 (% inhibition) | Plate 5 (% conversion) | Plate 2 (% conversion) | Plate 5 (% inhibition) | % conversion |
| --- | --- | --- | --- | --- | --- | --- | --- | --- |
| CC(N)Cc1c[nH]c2ccc(O)cc12.O=C(O)/C=C\C(=O)O (stereo not drawn) [alpha-Methyl-5-hydroxytryptamine maleate] | 39.06% |  |  |  |  |  |  |  |
| CC(=O)OCC1=C(C(=O)[O-])N2C(=O)[C@@H](NC(=O)CCC[C@@H](N)C(=O)[O-])[C@H]2SC1.[Zn+2] [cephalosporin C zinc salt, reference compound] |  | 98.1% | 2.94% |  |  |  |  |  |
| O=C1C=CC(=O)C=C1 [p-Benzoquinone, reference compound] |  | 99.3% | 2.52% | 99.30% |  |  |  |  |
| CCCc1nn(C)c2c(=O)[nH]c(-c3cc(S(=O)(=O)N4CCN(C)CC4)ccc3OCC)nc12 [sildenafil, reference compound] |  |  |  |  | 6.67% |  |  |  |
| (+)-Cyclazocine |  |  |  |  |  | 35.78% |  |  |
| CP-316819 |  |  |  |  | 34.19% |  | 6.23% |  |
| CP-335963 |  |  |  |  |  |  | -8.78% | 27.86% |
| Maraviroc |  |  | 50.71% | -44.18% | 49.04% |  | -37.39% |  |
| Phenylbenzene-omega-phosphono-alpha-amino acid |  |  |  |  |  |  |  | 25.21% |
| Picrotoxin | 36.08% |  |  |  |  |  |  |  |
| trans-(±)-ACPD |  |  | 37.46% | -4.72% |  |  |  |  |

same assay, conditions: 50 nM His6-AspH315–758, 1.0 μM hFX-CP101–119, 3 μM 2OG, 2 μM Fe(II), 50 mM HEPES pH 7.5, 20 °C; mean ± SD, n = 2 (2,4-PDCA n = 10)

| Compound | IC50 [μM] |
| --- | --- |
| CCOc1nc2cccc(C(=O)O)c2n1Cc1ccc(-c2ccccc2-c2nnn[nH]2)cc1 [candesartan, reference compound] | no inhibition |

same assay, conditions: 50 nM His6-AspH315–758, 1.0 μM hFX-CP101–119, 3 μM 2OG, 2 μM Fe(II), 50 mM HEPES pH 7.5, 20 °C; mean ± SD, n = 2 (2,4-PDCA n = 10); read-out: IC50

| Compound | IC50 |
| --- | --- |
| O=C(O)CNC(=O)C(=O)O [NOG, N-oxalylglycine, reference compound] | 1090 ± 290 nM |
| Cc1ccc(-n2sc3ccccc3c2=O)cc1 [PBIT, 2-(4-methylphenyl)-1,2-benzisothiazol-3(2 H)-one, reference compound] | 140 ± 20 nM |
| NC(CO)C(=O)NNCc1ccc(O)c(O)c1O (stereo not drawn) [benserazide, reference compound] | 3490 ± 760 nM |
| O=C(O)/C=C/c1ccc(O)c(O)c1 [caffeic acid, reference compound] | 240 ± 80 nM |
| O=c1c(O)c(-c2ccc(O)c(O)c2)oc2cc(O)cc(O)c12 [quercetin, reference compound] | 240 ± 10 nM |
| CCCc1nn(C)c2c(=O)[nH]c(-c3cc(S(=O)(=O)N4CCN(C)CC4)ccc3OCC)nc12 [sildenafil, reference compound] | 2450 ± 360 nM |

same assay, conditions: 20 µM

| Compound | Plate 2 (% inhibition) |
| --- | --- |
| (+)-Cyclazocine | 0.54% |

same assay, conditions: AspH activity; fixed compound concentration 20 μM; initial LOPAC screen; 0.5%v/v DMSO; read-out: Inhibition at 20 µM [%]

| Compound | inhibition at 20 µM |
| --- | --- |
| CCOc1nc2cccc(C(=O)OC(C)OC(=O)OC3CCCCC3)c2n1Cc1ccc(-c2ccccc2-c2nnn[nH]2)cc1 (stereo not drawn) [Candesartan cilexetil, reference compound] | 100% |
| NC(CO)C(=O)NNCc1ccc(O)c(O)c1O (stereo not drawn) [benserazide, reference compound] | 95.2% |
| O=c1c(O)c(-c2ccc(O)c(O)c2)oc2cc(O)cc(O)c12 [quercetin, reference compound] | 97.8% |
| CCCc1nn(C)c2c(=O)[nH]c(-c3cc(S(=O)(=O)N4CCN(C)CC4)ccc3OCC)nc12 [sildenafil, reference compound] | 97.8% |

same assay, conditions: LOPAC Plate 4, compound at 20 uM

| Compound | % inhibition |
| --- | --- |
| CCT007093 | 2.20% |
| PD-184161 | 6.57% |
| Ro 8-4304 | -13.60% |

same assay, conditions: LOPAC Plate 4, compound at 20 uM, substrate conversion

| Compound | % conversion |
| --- | --- |
| CCOc1nc2cccc(C(=O)OC(C)OC(=O)OC3CCCCC3)c2n1Cc1ccc(-c2ccccc2-c2nnn[nH]2)cc1 (stereo not drawn) [Candesartan cilexetil, reference compound] | 2.30% |
| NS(=O)(=O)Cc1noc2ccccc12 [Zonisamide sodium] | 32.12% |
| O=c1c(O)c(-c2ccc(O)c(O)c2)oc2cc(O)cc(O)c12 [quercetin, reference compound] | 3.10% |
| BMS-193885 | 32.96% |
| CCT007093 | 35.72% |
| PD-184161 | 34.23% |
| Ro 8-4304 | 41.11% |

same assay, conditions: LOPAC Plate 4, compound at 20 uM; read-out: % inhibition

| Compound | inhibition at 20 µM |
| --- | --- |
| O=c1c(O)c(-c2ccc(O)c(O)c2)oc2cc(O)cc(O)c12 [quercetin, reference compound] | 97.8% |

same assay, conditions: LOPAC compound at 20uM, plate 2; conversion of substrate peptide

| Compound | Plate 2 (% conversion) |
| --- | --- |
| OCCN1CCN(CC/C=C2/c3ccccc3Sc3ccc(C(F)(F)F)cc32)CC1 [cis-(Z)-Flupenthixol dihydrochloride] | 67.44% |
| N[C@@H](Cc1ccc(F)cc1)C(=O)O [p-Fluoro-L-phenylalanine] | 36.49% |
| KRM-III | 30.60% |

same assay, conditions: LOPAC compound at 20uM, plate 2; normalised to DMSO and 2,4-PDCA controls

| Compound | Plate 2 (% inhibition) |
| --- | --- |
| N[C@@H](Cc1ccc(F)cc1)C(=O)O [p-Fluoro-L-phenylalanine] | -1.58% |
| KRM-III | 15.99% |

same assay, conditions: LOPAC compound at 20uM, plate 2; normalised to DMSO and 2,4-PDCA controls; read-out: Plate 2 (% inhibition)

| Compound | inhibition at 20 µM |
| --- | --- |
| OCCN1CCN(CC/C=C2/c3ccccc3Sc3ccc(C(F)(F)F)cc32)CC1 [cis-(Z)-Flupenthixol dihydrochloride] | -94% |

same assay, conditions: LOPAC compound at 20uM, plate 3; conversion of substrate peptide

| Compound | Plate 3 (% conversion) |
| --- | --- |
| CC(C(=O)O)c1ccc(CC2CCCC2=O)cc1 (stereo not drawn) [loxoprofen] | 35.95% |
| NC(N)=NCc1cccc(I)c1.NC(N)=NCc1cccc(I)c1.O=S(=O)(O)O [m-Iodobenzylguanidine hemisulfate] | 36.94% |
| Cl.Clc1cc(I)cc(Cl)c1NC1=NCCN1 [p-Iodoclonidine hydrochloride] | 40.33% |
| COc1ccccc1N1CCN(CCN(C(=O)c2ccc(F)cc2)c2ccccn2)CC1.Cl.Cl [p-MPPF dihydrochloride] | 43.58% |
| LY-310,762 hydrochloride | 45.55% |
| Ro 61-8048 | 30.86% |
| Ro 90-7501 | 39.97% |

same assay, conditions: LOPAC compound at fixed 20 uM; plate 1, normalised to DMSO and 2,4-PDCA controls

| Compound | Plate 1 (% inhibition) |
| --- | --- |
| NC(CO)C(=O)NNCc1ccc(O)c(O)c1O (stereo not drawn) [benserazide, reference compound] | 95.21% |
| NC/C=C\C(=O)O [cis-4-Aminocrotonic acid] | -8.37% |
| C#CC(N)CCC(=O)O (stereo not drawn) [gamma-Acetylinic GABA] | -4.92% |
| Cl.Nc1cc(Cl)c(N=C2NCCN2)c(Cl)c1 [p-Aminoclonidine hydrochloride] | -0.11% |
| (+)-Catechin Hydrate | 90.19% |
| (±)-Atenolol | 7.50% |
| (±)-Butaclamol hydrochloride | -27.23% |
| Rhodblock 6 | -3.70% |
| Ro 20-1724 | -0.20% |

same assay, conditions: LOPAC compound at fixed 20 uM; substrate conversion, plate 1

| Compound | Plate 1 (% conversion) |
| --- | --- |
| NC(CO)C(=O)NNCc1ccc(O)c(O)c1O (stereo not drawn) [benserazide, reference compound] | 3.90% |
| O=C(O)/C=C/c1ccc(O)c(O)c1 [caffeic acid, reference compound] | 3.16% |
| NC/C=C\C(=O)O [cis-4-Aminocrotonic acid] | 38.68% |
| C#CC(N)CCC(=O)O (stereo not drawn) [gamma-Acetylinic GABA] | 37.52% |
| Cl.Nc1cc(Cl)c(N=C2NCCN2)c(Cl)c1 [p-Aminoclonidine hydrochloride] | 35.91% |
| (+)-Catechin Hydrate | 5.58% |
| (±)-Butaclamol hydrochloride | 45.02% |
| Rhodblock 6 | 37.11% |
| Ro 20-1724 | 35.94% |

same assay, conditions: pH 7.5; read-out: IC50

| Compound | IC50 |
| --- | --- |
| CC(=O)OCC1=C(C(=O)[O-])N2C(=O)[C@@H](NC(=O)CCC[C@@H](N)C(=O)[O-])[C@H]2SC1.[Zn+2] [cephalosporin C zinc salt, reference compound] | ~70 nM and 70 nM |

same assay, conditions: plate 5 (Pfitzer), test compounds at fixed 20 μM

| Compound | Plate 5 (% inhibition) |
| --- | --- |
| CCCc1nn(C)c2c(=O)[nH]c(-c3cc(S(=O)(=O)N4CCN(C)CC4)ccc3OCC)nc12 [sildenafil, reference compound] | 87.11% |
| PD-184161 | 40.35% |

same assay, conditions: plate 5 (Pfitzer), test compounds at fixed 20 μM; mean conversion DMSO 32.88

| Compound | Plate 5 (% conversion) |
| --- | --- |
| PD-184161 | 22.58% |
